Test results taken from patent US7412284B2, “Apparatus for electroporation mediated delivery for drugs and genes” (Genetronics, Inc., priority 1997, dated 2008).

Key:
[1] = system: Human pancreatic xenograft (Panc-4); assay: EPT using MedPulser and bleomycin, Panc-4 xenograft; type: in vivo, nude mice; conditions: up to day 39 of observation
Description: Preliminary experiments using MedPulser™ (apparatus of the invention) for treatment of tumor xenografts grown subcutaneously onto nude mice have shown encouraging results. […] Treatment of human prostate xenografts (PC-3) has also shown about 66% complete regression of tumors. (No tumors observed up to 60 days after treatment). Both 4 and 6 needle array are effective in treatment of tumors by EPT.

[2] = system: PC-3 (human prostate cell line); assay: MedPulser 4 vs 6 needle array in vitro, XTT cell survival; type: cell-based; conditions: bleomycin at 2×10^5 M, 20 hours
Description: Experiments were carried out to compare the efficacy of 6 vs. 4 needle array with MedPulser™ on PC-3 (human prostate cell line) in vitro. Cells were suspended in RPMI media and seeded uniformly at 200,000 cells/ml. Bleomycin at […] was added to the wells (for D+E− and D+E+ only). Cells were electroporated in 24 well plates using the 6-needle and 4-needle array electrodes connected to the MedPulser. The electropulse parameters were 6×99 μs, 1129 V with the 6-needle array and 4×99 μs, 848 V with the 4-needle array. The cells were transferred to 96 well plates and incubated for 20 hours at 37° C. The cell survival was determined using XTT assay which is based on metabolic conversion of XTT to formazan and is measured spectrophotometrically at 450 nm. Only the cells which are live convert XTT to formazan. The percent cell survival values are relative values calculated from the O.D. values of the sample, a control with 100% cell survival (D−E−) and control with 0% cell survival (D−E− with SDS, which lyses all cells).

[3] = system: basal cell carcinomas and melanomas; assay: Clinical trials of bleomycin-EPT for basal cell carcinomas and melanomas; type: in vivo, humans; conditions: for % RESPONSE CR D′D / % RESPONSE CR D′E′ / TUMOR RESPONSE CR D′D / TUMOR RESPONSE CR D′E′: CR=complete response; for % RESPONSE NE D′D / % RESPONSE NE D′E′ / TUMOR RESPONSE NE D′D / TUMOR RESPONSE NE D′E′: NE=no effect
Description: The following examples illustrate the use of EPT in cell lines, animals and humans. Example 1 illustrates EPT in poorly differentiated human pancreatic tumors (Panc-3) xenografted subcutaneously on the flank of nude mice. […] Example 4 provides in vitro data for EPT utilizing low voltage (electric field) and long pulse length. The parameters for EPT are described in the examples; for Example 1 and for the head and neck clinical trials, the nominal electric field was 1300 V/cm and 6 pulses for 99-100 μsec, spaced at 1 second intervals. The clinical trials (Example 2) used similar parameters, however the electric field was 1130 V/cm. (Nominal electric field (V/cm) is applied voltage (V) across the needle pairs divided by the distance between the needle pairs (cm).) The Examples illustrate the use of EPT for effectively killing undesired cell populations (e.g., a tumor) in vitro and in vivo.
The effectiveness of bleomycin-EPT on the tumors was to be assessed by the end of the eight-week period using the same tumor response criteria as employed in Example 1.
The concentration of bleomycin administered was 5 U/1 mL. The dosages of bleomycin were administered as follows: […]

[4] = cited from earlier work
[5] = BCC nodules, PR=partial response
[6] = Mel nodules, PR=partial response
[7] = Other nodules, PR=partial response
[8] = Total nodules, PR=partial response

In the case of bleomycin, the “mice with complete tumor regression” value [1] is reported as “about 75%”, the “Avg. % Survival” value ([2]; D + E + (4N), 4×99 μs, 848 V, 4-needle array) is reported as 4.78% and the “Avg. % Survival” value ([2]; D + E + (6N), 6×99 μs, 1129 V, 6-needle array) is reported as −4.12%. The “Avg. % Survival” value ([2]; D + E −, no pulse) was 27.71%, the “% RESPONSE CR D′D” value ([3]; BCC nodules) was 0% and the “% RESPONSE CR D′E′” value ([3]; BCC nodules) was 98%. For the same substance, the “TUMOR RESPONSE CR D′D” value ([3]; BCC nodules) was 0/6, the “TUMOR RESPONSE CR D′E′” value ([3]; BCC nodules) was 43/44 and the “% RESPONSE NE D′D” value ([3]; BCC nodules) was 83%. The “% RESPONSE NE D′E′” value ([3]; BCC nodules) was 0%, the “TUMOR RESPONSE NE D′D” value ([3]; BCC nodules) was 5/6 and the “TUMOR RESPONSE NE D′E′” value ([3]; BCC nodules, less than 50% reduction in tumor volume) was 0/44. For the same substance, the “TUMOR RESPONSE PR D′E′” value ([3]; BCC nodules, PR=50% or greater reduction in tumor volume) was 1/44, the “% RESPONSE PR D′D” value [3, 5] was 17% and the “% RESPONSE PR D′E′” value [3, 5] was 2%. The “TUMOR RESPONSE PR D′D” value [3, 5] was 1/6, the “% RESPONSE CR D′D” value ([3]; Mel nodules) was 0% and the “% RESPONSE CR D′E′” value ([3]; Mel nodules) was 91%. For the same substance, the “TUMOR RESPONSE CR D′D” value ([3]; Mel nodules) was 0/5, the “TUMOR RESPONSE CR D′E′” value ([3]; Mel nodules) was 53/58 and the “% RESPONSE NE D′D” value ([3]; Mel nodules) was 100%. For the same substance, the “% RESPONSE NE D′E′” value ([3]; Mel nodules) was 2%, the “TUMOR RESPONSE NE D′D” value ([3]; Mel nodules) was 5/5 and the “TUMOR RESPONSE NE D′E′” value ([3]; Mel nodules) was 1/58. For the same substance, the “% RESPONSE PR D′D” value [3, 6] was 0%, the “% RESPONSE PR D′E′” value [3, 6] was 7% and the “TUMOR RESPONSE PR D′D” value [3, 6] was 0/5. For the same substance, the “TUMOR RESPONSE PR D′E′” value [3, 6] was 4/58, the “% RESPONSE CR D′D” value ([3]; Other nodules) was 0% and the “% RESPONSE CR D′E′” value ([3]; Other nodules) was 80%. For the same substance, the “TUMOR RESPONSE CR D′D” value ([3]; Other nodules) was 0/3, the “TUMOR RESPONSE CR D′E′” value ([3]; Other nodules) was 4/5 and the “% RESPONSE NE D′D” value ([3]; Other nodules) was 100%. The “% RESPONSE NE D′E′” value ([3]; Other nodules) was 0%, the “TUMOR RESPONSE NE D′D” value ([3]; Other nodules) was 3/3 and the “TUMOR RESPONSE NE D′E′” value ([3]; Other nodules) was 0/5. The “% RESPONSE PR D′D” value [3, 7] was 0%, the “% RESPONSE PR D′E′” value [3, 7] was 20% and the “TUMOR RESPONSE PR D′D” value [3, 7] was 0/3. The “TUMOR RESPONSE PR D′E′” value [3, 7] was 1/5, the “% RESPONSE CR D′D” value ([3]; Total nodules) was 0% and the “% RESPONSE CR D′E′” value ([3]; Total nodules) was 93%. For the same substance, the “TUMOR RESPONSE CR D′D” value ([3]; Total nodules) was 0/14, the “TUMOR RESPONSE CR D′E′” value ([3]; Total nodules) was 100/107 and the “% RESPONSE NE D′D” value ([3]; Total nodules) was 93%. The “% RESPONSE NE D′E′” value ([3]; Total nodules) was 1%, the “TUMOR RESPONSE NE D′D” value ([3]; Total nodules) was 13/14 and the “TUMOR RESPONSE NE D′E′” value ([3]; Total nodules) was 1/107. The “% RESPONSE PR D′D” value [3, 8] was 7%, the “% RESPONSE PR D′E′” value [3, 8] was 6% and the “TUMOR RESPONSE PR D′D” value [3, 8] was 1/14. For the same substance, the “TUMOR RESPONSE PR D′E′” value [3, 8] was 6/107 and the “log P (P being the partition coefficient between octanol and water)” value [4] was “very negative”.
